BindingDB's records for doi:10.1016/j.bmcl.2006.12.077 (Glaxosmithkline, 2007)
pIC50: −log10 of the molar value.

Target: Vascular endothelial growth factor receptor 2 (Homo sapiens, UniProt P35968)
Experiment: Homogeneous Time-Resolved Fluorescence (HTRF) Enzyme Assay
Details: pH 7.5; 22 °C
Protocol: The assay uses purified GST-Tie-2 or GST-6x His-VEGFR2 interacting with biotinylated peptide substrates. HTRF is based on the proximity of europium cryptate (donor fluorophore)-labeled antiphosphotyrosine and streptavidin labeled with APC (allophycocyanin), which have been brought together by a binding reaction. When the two entities come into close proximity and upon excitation, energy transfer occurs and APC re-emits at 665 nm. The IC50 values for inhibitors were determined by a four-parameter sigmoidal curve fit.

Chain of Vascular endothelial growth factor receptor 2 (P35968 whole entry): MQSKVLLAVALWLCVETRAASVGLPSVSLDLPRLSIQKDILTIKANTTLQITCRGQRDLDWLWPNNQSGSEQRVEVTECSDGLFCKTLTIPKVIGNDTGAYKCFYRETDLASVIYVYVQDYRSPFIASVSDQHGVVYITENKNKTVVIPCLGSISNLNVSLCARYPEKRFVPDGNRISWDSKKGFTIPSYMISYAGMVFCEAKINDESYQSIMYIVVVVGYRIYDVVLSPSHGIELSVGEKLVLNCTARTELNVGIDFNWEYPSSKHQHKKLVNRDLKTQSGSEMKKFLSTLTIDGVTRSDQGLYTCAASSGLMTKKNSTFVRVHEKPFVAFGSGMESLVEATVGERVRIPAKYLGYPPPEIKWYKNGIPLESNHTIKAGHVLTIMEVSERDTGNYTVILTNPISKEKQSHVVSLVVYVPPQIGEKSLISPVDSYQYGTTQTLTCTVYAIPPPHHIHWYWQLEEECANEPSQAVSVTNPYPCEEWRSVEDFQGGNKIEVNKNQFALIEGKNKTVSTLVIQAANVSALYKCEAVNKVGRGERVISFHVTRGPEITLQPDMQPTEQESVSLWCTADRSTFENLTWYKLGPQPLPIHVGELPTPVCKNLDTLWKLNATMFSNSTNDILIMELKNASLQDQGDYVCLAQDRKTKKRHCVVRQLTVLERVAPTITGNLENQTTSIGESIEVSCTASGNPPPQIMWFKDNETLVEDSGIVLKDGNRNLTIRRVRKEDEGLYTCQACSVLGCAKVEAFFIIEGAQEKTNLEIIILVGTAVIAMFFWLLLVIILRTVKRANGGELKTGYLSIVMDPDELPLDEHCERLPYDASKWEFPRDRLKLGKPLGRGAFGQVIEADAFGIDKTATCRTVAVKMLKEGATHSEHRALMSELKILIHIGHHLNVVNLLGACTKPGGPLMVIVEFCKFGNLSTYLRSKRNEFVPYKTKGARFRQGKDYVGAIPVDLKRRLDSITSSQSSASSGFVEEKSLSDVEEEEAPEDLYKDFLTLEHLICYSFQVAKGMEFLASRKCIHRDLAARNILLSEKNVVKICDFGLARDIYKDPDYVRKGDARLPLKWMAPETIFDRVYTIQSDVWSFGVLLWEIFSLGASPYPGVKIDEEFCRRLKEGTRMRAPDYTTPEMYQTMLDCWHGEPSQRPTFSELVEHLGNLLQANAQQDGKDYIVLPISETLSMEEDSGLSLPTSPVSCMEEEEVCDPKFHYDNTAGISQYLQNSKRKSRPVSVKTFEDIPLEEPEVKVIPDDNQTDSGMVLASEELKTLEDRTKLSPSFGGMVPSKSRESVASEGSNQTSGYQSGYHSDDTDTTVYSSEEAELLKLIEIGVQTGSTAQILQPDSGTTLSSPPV

pIC50	Structure (SMILES)
6.86	Nc1ncnc2occ(-c3ccc(NC(=O)Nc4cc(C(F)(F)F)cc(C(F)(F)F)c4)cc3)c12 [3-(4-{4-aminofuro[2,3-d]pyrimidin-5-yl}phenyl)-1-[3,5-bis(trifluoromethyl)phenyl]urea]
7.81	COc1ccc(-c2oc3ncnc(N)c3c2-c2ccc(NC(=O)Nc3cc(C(F)(F)F)ccc3F)cc2)cc1 [3-{4-[4-amino-6-(4-methoxyphenyl)furo[2,3-d]pyrimidin-5-yl]phenyl}-1-[2-fluoro-5-(trifluoromethyl)phenyl]urea]
